pEC50: −log10 of the molar value.
Assays:
[1] = biological target: T1, Glucocorticoid receptor (Homo sapiens) (UniProt P04150); assay: Transcriptional activation of Gal4(1-147) tagged glucocorticoid receptor in human HeLa cells at 1 uM by luciferase reporter gene assay relative to OxDex-AEEA; assay type: cell-based
T1 sequence (whole entry): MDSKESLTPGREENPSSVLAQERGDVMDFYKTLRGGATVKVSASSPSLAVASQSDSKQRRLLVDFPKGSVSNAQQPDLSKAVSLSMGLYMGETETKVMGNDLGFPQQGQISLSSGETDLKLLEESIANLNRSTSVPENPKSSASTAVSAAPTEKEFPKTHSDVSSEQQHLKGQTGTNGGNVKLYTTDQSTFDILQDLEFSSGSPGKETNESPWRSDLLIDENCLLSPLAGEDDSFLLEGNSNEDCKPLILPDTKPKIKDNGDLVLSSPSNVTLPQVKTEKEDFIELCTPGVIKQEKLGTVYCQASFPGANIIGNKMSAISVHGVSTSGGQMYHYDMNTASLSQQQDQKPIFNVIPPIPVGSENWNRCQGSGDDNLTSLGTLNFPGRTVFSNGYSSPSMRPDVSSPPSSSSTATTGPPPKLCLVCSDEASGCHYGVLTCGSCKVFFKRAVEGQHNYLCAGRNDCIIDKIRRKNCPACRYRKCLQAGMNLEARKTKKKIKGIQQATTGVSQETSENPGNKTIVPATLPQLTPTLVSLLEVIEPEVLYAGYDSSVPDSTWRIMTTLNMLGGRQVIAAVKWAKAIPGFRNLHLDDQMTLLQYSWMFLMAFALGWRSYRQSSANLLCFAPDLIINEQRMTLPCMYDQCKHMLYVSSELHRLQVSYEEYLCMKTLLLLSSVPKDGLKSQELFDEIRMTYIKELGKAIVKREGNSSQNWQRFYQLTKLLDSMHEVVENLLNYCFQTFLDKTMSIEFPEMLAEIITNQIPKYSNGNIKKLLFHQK

[2] = biological target: T2, Glucocorticoid receptor (Homo sapiens, UniProt P04150); assay: Transcriptional activation of Gal4(1-147) tagged glucocorticoid receptor in human HeLa cells by luciferase reporter gene assay relative to OxDex-AEEA; assay type: cell-based
T2 sequence (P04150 whole entry): T1 sequence (whole entry)

fold change (FC) [1]	pEC50 [2]	SMILES
80	7.48	CC(C)C[C@]1(CCO)C[C@H](CNC(=O)COCCOCCNC(=O)[C@@]2(O)[C@H](C)C[C@H]3[C@@H]4CCC5=CC(=O)C=C[C@]5(C)[C@@]4(F)[C@@H](O)C[C@@]32C)ON1Cc1ccccc1
	5.60	CC(C)C[C@](CCO)(C[C@H](O)CNC(=O)COCCOCCNC(=O)[C@@]1(O)[C@H](C)C[C@H]2[C@@H]3CCC4=CC(=O)C=C[C@]4(C)[C@@]3(F)[C@@H](O)C[C@@]21C)NCc1ccccc1
	5.73	CC(C)C[C@@H](NC(=O)COCCOCCNC(=O)[C@@]1(O)[C@H](C)C[C@H]2[C@@H]3CCC4=CC(=O)C=C[C@]4(C)[C@@]3(F)[C@@H](O)C[C@@]21C)C(=O)N[C@H](CO)C(=O)N[C@H](Cc1ccccc1)C(N)=O
